pIC50: −log10 of the molar value.
Key:
Type in all cases: cell-based
MV-4-11 (AML) cells = test: Cell proliferation and growth inhibition assay (CCK-8) in MV-4-11; details: Homo sapiens, MV4-11; MV-4-11 cells, treated with test compounds for 72 hrs, CCK-8 viability
Protocol: (§1) MV-4-11 and H1975 cells were obtained from the American Type Culture Collection and KM12-luc cells were obtained from JCRB Cell Bank. All cell lines were maintained at 37° C. with 5% C02, in media supplemented with 10% fetal bovine serum and penicillin (100 units/mL) and streptomycin (100 μg/mL). MV-4-11 cells were maintained in Iscove's Modified Dubecco's Medium, H1975 cells were cultured with RPMI 1640 media, and KM12-luc cells were maintained in Dulbecco's Modification of Eagle's Medium. CCK-8 reagent was obtained from Yeasen.
(§2) Cell proliferation was assessed by CCK-8 assay (Yeasen) per the manufacturer's instructions. The MV-4-11 (AML), H1975, and KM12-luc cells were seeded at 30,000, 3,000 and 2,500 cells per well onto 96-well plates, and after a 24 h incubation, the cells were treated with test compounds for 72 hrs. Cell viability was assayed by incubating the cells with CCK-8 reagent for 1-4 hrs. Absorbance was measured at OD450 using the Beckman DTX880. The data was calculated using GraphPad Prism version 6.01. The IC50 values were fitted using a non-linear regression model with a sigmoidal dose response.

KM12-luc cells = test: Cell proliferation and growth inhibition assay (CCK-8) in KM12-luc; details: KM12-Luc, 72 h, KM12-luc cells, treated with test compounds for 72 hrs, CCK-8 viability; read-out: NTRK IC50 in KM12-luc
How it was run: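 IC50 values were fitted by sigmoidal dose-response non-linear regression of CCK-8 OD450 absorbance after 1-4 hrs with reagent. Culture media were IMDM for MV-4-11, RPMI 1640 for H1975 and DMEM for KM12-luc, each with 10% FBS at 37 °C, 5% CO2.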

H1975 cells = test: Cell proliferation and growth inhibition assay (CCK-8) in H1975; details: Homo sapiens, NCI-H1975, 72 h, treated with test compounds for 72 hrs, CCK-8 viability, read-out: EGFR IC50 in H1975
Protocol: as §1, §2

CCC(=O)Nc1cccc(Nc2ncc(Cl)c(Nc3ccc(C4CCCN(C)C4)cc3OC)n2)c1 (stereo not drawn) [Compound 166, N-(3-((5-chloro-4-((2-methoxy-4-(1-methylpiperidin-3-yl)phenyl)amino)pyrimidin-2-yl)amino)phenyl)propionamide]
pIC50 (MV-4-11 (AML) cells): 7.01
pIC50 (KM12-luc cells): 7.40
pIC50 (H1975 cells): 6.16

CCC(=O)Nc1cccc(Nc2ncc(C(F)(F)F)c(Nc3ccc(N4CCN(C(C)=O)CC4)cc3OC)n2)c1 [Compound 169, N-(3-((4-((4-(4-acetylpiperazin-1-yl)-2-methoxyphenyl)amino)-5-(trifluoromethyl)pyrimidin-2-yl)amino)phenyl)propionamide]
pIC50 (MV-4-11 (AML) cells): 7.59
pIC50 (KM12-luc cells): 7.36
pIC50 (H1975 cells): 6.54

COc1cnc(Nc2ccc(OCCN(C)C)c(NC(C)=O)c2)nc1-c1c[nH]c2c(C)cccc12 [Compound 284, N-(2-(2-(dimethylamino)ethoxy)-5-((5-methoxy-4-(7-methyl-1H-indol-3-yl)pyrimidin-2-yl)amino)phenyl)acetamide]
pIC50 (MV-4-11 (AML) cells): 7.20
pIC50 (KM12-luc cells): 7.82
pIC50 (H1975 cells): 5.99

CCN(CCN(C)C)c1ccc(Nc2ncc(C(F)(F)F)c(-c3c[nH]c4cccc(F)c34)n2)cc1N [Compound 319, N^1-(2-(dimethylamino)ethyl)-N^1-ethyl-N^4-(4-(4-fluoro-1H-indol-3-yl)-5-(trifluoromethyl)pyrimidin-2-yl)benzene-1,2,4-triamine]
pIC50 (MV-4-11 (AML) cells): 7.53
pIC50 (KM12-luc cells): 7.72
pIC50 (H1975 cells): 6.11

CC(=O)Nc1cc(Nc2ncc(C(F)(F)F)c(-c3c[nH]c4c(F)cccc34)n2)ccc1N(C)CCN(C)C [Compound 334, N-(2-((2-(dimethylamino)ethyl)(methyl)amino)-5-((4-(7-fluoro-1H-indol-3-yl)-5-(trifluoromethyl)pyrimidin-2-yl)amino)phenyl)acetamide]
pIC50 (MV-4-11 (AML) cells): 8.47
pIC50 (KM12-luc cells): 8.52
pIC50 (H1975 cells): 7.04

CN(C)CCN(C)c1ccc(Nc2ncc(C(F)(F)F)c(-c3c[nH]c4c(F)cccc34)n2)cc1N [Compound 335, N^1-(2-(dimethylamino)ethyl)-N^1-methyl-N^4-(4-(7-fluoro-1H-indol-3-yl)-5-(trifluoromethyl)pyrimidin-2-yl)benzene-1,2,4-triamine]
pIC50 (MV-4-11 (AML) cells): 8.51
pIC50 (KM12-luc cells): 8.21
pIC50 (H1975 cells): 7.12

CCN(CCN(C)C)c1ccc(Nc2ncc(C(F)(F)F)c(-c3c[nH]c4c(F)cccc34)n2)cc1N [Compound 337, N^1-(2-(dimethylamino)ethyl)-N^1-ethyl-N^4-(4-(7-fluoro-1H-indol-3-yl)-5-(trifluoromethyl)pyrimidin-2-yl)benzene-1,2,4-triamine]
pIC50 (MV-4-11 (AML) cells): 7.95
pIC50 (KM12-luc cells): 7.98
pIC50 (H1975 cells): 6.44

CC(=O)Nc1cc(Nc2ncc(C(F)(F)F)c(-c3c[nH]c4c(F)cccc34)n2)ccc1OCCN(C)C [Compound 343, N-(2-(2-(dimethylamino)ethoxy)-5-((4-(7-fluoro-1H-indol-3-yl)-5-(trifluoromethyl)pyrimidin-2-yl)amino)phenyl)acetamide]
pIC50 (MV-4-11 (AML) cells): 8.59
pIC50 (KM12-luc cells): 8.37
pIC50 (H1975 cells): 7.11

CC(=O)Nc1cc(Nc2ncc(C(F)(F)F)c(-c3c[nH]c4c(C)cccc34)n2)ccc1N(C)CCN(C)C [Compound 358, N-(2-((2-(dimethylamino)ethyl)(methyl)amino)-5-((4-(7-methyl-1H-indol-3-yl)-5-(trifluoromethyl)pyrimidin-2-yl)amino)phenyl)acetamide]
pIC50 (MV-4-11 (AML) cells): 8.36
pIC50 (KM12-luc cells): 8.51
pIC50 (H1975 cells): 7.33

Cc1cccc2c(-c3nc(Nc4ccc(N(C)CCN(C)C)c(N)c4)ncc3C(F)(F)F)c[nH]c12 [Compound 359, N^1-(2-(dimethylamino)ethyl)-N^1-methyl-N^4-(4-(7-methyl-1H-indol-3-yl)-5-(trifluoromethyl)pyrimidin-2-yl)benzene-1,2,4-triamine]
pIC50 (MV-4-11 (AML) cells): 8.23
pIC50 (KM12-luc cells): 8.26
pIC50 (H1975 cells): 6.92

CC(=O)Nc1cc(Nc2ncc(C(F)(F)F)c(-c3c[nH]c4c(C)cccc34)n2)ccc1OCCN(C)C [Compound 365, N-(2-(2-(dimethylamino)ethoxy)-5-((4-(7-methy-1H-indol-3-yl)-5-(trifluoromethyl)pyrimidin-2-yl)amino)phenyl)acetamide]
pIC50 (MV-4-11 (AML) cells): 8.36
pIC50 (KM12-luc cells): 8.37
pIC50 (H1975 cells): 7.17

COc1cccc2c(-c3nc(Nc4ccc(N(C)CCN(C)C)c(NC(C)=O)c4)ncc3C(F)(F)F)c[nH]c12 [Compound 374, N-(2-((2-(dimethylamino)ethyl)(methyl)amino)-5-((4-(7-methoxy-1H-indol-3-yl)-5-(trifluoromethyl)pyrimidin-2-yl)amino)phenyl)acetamide]
pIC50 (MV-4-11 (AML) cells): 8.28
pIC50 (KM12-luc cells): 8.43
pIC50 (H1975 cells): 7.28

COc1cccc2c(-c3nc(Nc4ccc(N(C)CCN(C)C)c(N)c4)ncc3C(F)(F)F)c[nH]c12 [Compound 375, N^1-(2-(dimethylamino)ethyl)-N^4-(4-(7-methoxy-1H-indol-3-yl)-5-(trifluoromethyl)pyrimidin-2-yl)-N^1-methylbenzene-1,2,4-triamine]
pIC50 (MV-4-11 (AML) cells): 8.38
pIC50 (KM12-luc cells): 8.39
pIC50 (H1975 cells): 6.82

COc1cccc2c(-c3nc(Nc4ccc(OCCN(C)C)c(NC(C)=O)c4)ncc3C(F)(F)F)c[nH]c12 [Compound 381, N-(2-(2-(dimethylamino)ethoxy)-5-((4-(7-methoxy-1H-indol-3-yl)-5-(trifluoromethyl)pyrimidin-2-yl)amino)phenyl)acetamide]
pIC50 (MV-4-11 (AML) cells): 8.28
pIC50 (KM12-luc cells): 8.14
pIC50 (H1975 cells): 6.78

CC(=O)Nc1cc(Nc2ncc(Cl)c(-c3cn(C)c4ccccc34)n2)ccc1N1CCC(N(C)C)C1 (stereo not drawn) [Compound 402, N-(5-((5-chloro-4-(1-methyl-1H-indol-3-yl)pyrimidin-2-yl)amino)-2-(3-(dimethylamino)pyrrolidin-1-yl)phenyl)acetamide]
pIC50 (MV-4-11 (AML) cells): 7.19
pIC50 (KM12-luc cells): 7.56
pIC50 (H1975 cells): 5.92

Cc1cccc2c(-c3nc(Nc4ccc(N(C)CCN(C)C)c(N)c4)ncc3Cl)c[nH]c12 [Compound 422, N^4-(5-chloro-4-(7-methyl-1H-indol-3-yl)pyrimidin-2-yl)-N^1-(2-(dimethylamino)ethyl)-N^1-methylbenzene-1,2,4-triamine]
pIC50 (MV-4-11 (AML) cells): 8.28
pIC50 (KM12-luc cells): 8.28
pIC50 (H1975 cells): 6.54

CC(=O)Nc1cc(Nc2ncc(Cl)c(-c3c[nH]c4ccccc34)n2)ccc1N1CCC(N(C)C)C1 (stereo not drawn) [Compound 444, N-(5-((5-chloro-4-(1H-indol-3-yl)pyrimidin-2-yl)amino)-2-(3-(dimethylamino)pyrrolidin-1-yl)phenyl)acetamide]
pIC50 (MV-4-11 (AML) cells): 8.54
pIC50 (KM12-luc cells): 8.26
pIC50 (H1975 cells): 6.52

CC(=O)Nc1cc(Nc2ncc(Cl)c(-c3cnc(C(C)C)n3C)n2)ccc1N(C)CCN(C)C [Compound 452, N-(5-((5-chloro-4-(2-isopropyl-1-methyl-1H-imidazol-5-yl)pyrimidin-2-yl)amino)-2-((2-(dimethylamino)ethyl)(methyl)amino)phenyl)acetamide]
pIC50 (MV-4-11 (AML) cells): < 6.00
pIC50 (H1975 cells): < 4.70

COc1cnc(Nc2ccc(N3CC[C@H](N(C)C)C3)c(NC(C)=O)c2)nc1-c1c[nH]c2c(F)cccc12 [Compound S-280, (S)—N-(2-(3-(dimethylamino)pyrrolidin-1-yl)-5-((4-(7-fluoro-1H-indol-3-yl)-5-methoxypyrimidin-2-yl)amino)phenyl)acetamide]
pIC50 (KM12-luc cells): 7.84
pIC50 (H1975 cells): 5.90

COc1cnc(Nc2ccc(N3CC[C@H](N(C)C)C3)c(NC(C)=O)c2)nc1-c1c[nH]c2c(OC)cccc12 [Compound S-288, (S)—N-(2-(3-(dimethylamino)pyrrolidin-1-yl)-5-((5-methoxy-4-(7-methoxy-1H-indol-3-yl)pyrimidin-2-yl)amino)phenyl)acetamide]
pIC50 (KM12-luc cells): 7.77
pIC50 (H1975 cells): 5.90

CC(=O)Nc1cc(Nc2ncc(C(F)(F)F)c(-c3cn(C)c4c(C)cccc34)n2)ccc1N1CC[C@H](N(C)C)C1 [Compound S-373, (S)—N-(5-((4-(1,7-dimethyl-1H-indol-3-yl)-5-(trifluoromethyl)pyrimidin-2-yl)amino)-2-(3-(dimethylamino)pyrrolidin-1-yl)phenyl)acetamide]
pIC50 (KM12-luc cells): 7.68
pIC50 (H1975 cells): 6.34

COc1cccc2c(-c3nc(Nc4ccc(N5CC[C@H](N(C)C)C5)c(NC(C)=O)c4)ncc3C(F)(F)F)cn(C)c12 [Compound S-389, (S)—N-(2-(3-(dimethylamino)pyrrolidin-1-yl)-5-((4-(7-methoxy-1-methyl-1H-indol-3-yl)-5-(trifluoromethyl)pyrimidin-2-yl)amino)phenyl)acetamide]
pIC50 (KM12-luc cells): 7.63
pIC50 (H1975 cells): 6.05

COc1cccc2c(-c3nc(Nc4ccc(N5CC[C@H](N(C)C)C5)c(NC(C)=O)c4)ncc3Cl)cn(C)c12 [Compound S-435, (S)—N-(5-(5-chloro-4-(7-methoxy-1-methyl-1H-indol-3-yl)pyrimidin-2-ylamino)-2-(3-(dimethylamino)pyrrolidin-1-yl)phenyl)acetamide]
pIC50 (KM12-luc cells): 7.32
pIC50 (H1975 cells): 5.81
